# Experimental data as given in patent publication US20060223996A1, “IL-12 modulatory compounds” (Synta Pharmaceuticals Corp., priority 2004, published 2006).
# Tested on: IL-12
# Assay: Human in vitro assay: inhibition of IL-12 production in IFNγ/LPS- or IFNγ/SAC-stimulated human PBMC or THP-1 cells (ELISA)
# Assay type: cell-based
# Conditions: read-out: IC50 Range (representative in vitro IC50 data)
# In short: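 PBMC (5×10^5 cells/well) primed with IFNγ 30 U/mL for 22 h then LPS 1 μg/mL, or IFNγ 100 U/mL then SAC 0.01%; THP-1 primed with IFNγ 100 U/mL for 22 h then SAC 0.025%, with compound in 0.25% DMSO. Supernatant IL-12 p70/p40 measured by sandwich ELISA after 18 h; IC50 derived; viability by MTS.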
row,Compound,IC50 [µM]
1,"Cc1cccc(NC(=O)C(=O)Nc2cc(OCCc3ccccn3)nc(N3CCOCC3)n2)c1 [Compound 85, N-[2-Morpholin-4-yl-6-(2-pyridin-2-yl-ethoxy)-pyrimidin-4-yl]-N′-m-tolyl-oxalamide]",≥ 1
2,"COCCN(C)c1cc(C(=O)Nc2cc(-c3ccc(Cl)cc3)nn2C)nc(N2CCOCC2)n1 [Compound 227, 6-[(2-Methoxy-ethyl)-methyl-amino]-2-morpholin-4-yl-pyrimidine-4-carboxylic acid [5-(4-chloro-phenyl)-2-methyl-2H-pyrazol-3-yl]-amide]",≥ 1
3,"Cc1cc(NC(=O)c2cc(OCCN3CCOCC3)nc(N3CCOCC3)n2)no1 [Compound 48, 2-Morpholin-4-yl-6-(2-morpholin-4-yl-ethoxy)-pyrimidine-4-carboxylic acid (5-methyl-isoxazol-3-yl)-amide]",≥ 1
4,"O=C(Nc1cccc(O)c1)C(=O)Nc1cc(OCCc2ccccn2)nc(N2CCOCC2)n1 [Compound 86, N-(3-Hydroxy-phenyl)-N′-[2-morpholin-4-yl-6-(2-pyridin-2-yl-ethoxy)-pyrimidin-4-yl]-oxalamide]",≥ 1
5,"COCCN(C)c1cc(N2CCOCC2)cc(C(=O)Nc2cccc(N(C)C)c2)n1 [Compound 157, 6-[(2-Methoxy-ethyl)-methyl-amino]-4-morpholin-4-yl-pyridine-2-carboxylic acid (3-dimethylamino-phenyl)-amide]",≥ 1
6,"O=C(Nc1cccc(-n2ccnc2)c1)Nc1cc(OCCN2CCOCC2)nc(N2CCOCC2)n1 [Compound 328, 1-(3-Imidazol-1-yl-phenyl)-3-[2-morpholin-4-yl-6-(2-morpholin-4-yl-ethoxy)-pyrimidin-4-yl]-urea]",≥ 1
7,"COCCN(C)c1cc(C(=O)Nc2cccc(S(C)(=O)=O)c2)nc(N2CCOCC2)n1 [Compound 231, 6-[(2-Methoxy-ethyl)-methyl-amino]-2-morpholin-4-yl-pyrimidine-4-carboxylic acid (3-methanesulfonyl-phenyl)-amide]",≥ 1
8,"Cc1ccc(NC(=S)Nc2cc(N3CCOCC3)nc(OCCN3CCOCC3)n2)cc1 [Compound 12, 1-[6-Morpholin-4-yl-2-(2-morpholin-4-yl-ethoxy)-pyrimidin-4-yl]-3-p-tolyl-thiourea]",≥ 1
9,"COCCN(C)c1cc(C(=O)Nc2cccc(-c3cnc4ccccc4n3)c2)nc(N2CCOCC2)n1 [Compound 242, 6-[(2-Methoxy-ethyl)-methyl-amino]-2-morpholin-4-yl-pyrimidine-4-carboxylic acid (3-quinoxalin-2-yl-phenyl)-amide]",≥ 1
10,"O=C(Nc1cccc(O)c1)C(=O)Nc1cc(N2CCOCC2)nc(OCCc2ccccn2)n1 [Compound 87, N-(3-Hydroxy-phenyl)-N′-[6-morpholin-4-yl-2-(2-pyridin-2-yl-ethoxy)-pyrimidin-4-yl]-oxalamide]",≥ 1
11,"CC(C)c1cccc(NC(=O)c2cc(OCCN3CCOCC3)nc(N3CCOCC3)n2)c1 [Compound 213, N-(3-isopropylphenyl)-2-morpholino-6-(2-morpholinoethoxy)pyrimidine-4-carboxamide]",≥ 1
12,"O=C(Nc1cc(OCCN2CCOCC2)nc(N2CCOCC2)n1)Nc1ccccc1Cl [Compound 132, 1-(2-Chloro-phenyl)-3-[2-morpholin-4-yl-6-(2-morpholin-4-yl-ethoxy)-pyrimidin-4-yl]-urea]",< 1
13,"CN1C(=O)C(C)(C)c2cc(NC(=O)c3cc(OCCN4CCOCC4)nc(N4CCOCC4)n3)ccc21 [Compound 219, 2-morpholino-6-(2-morpholinoethoxy)-N-(1,3,3-trimethyl-2-oxoindolin-5-yl)pyrimidine-4-carboxamide]",< 1
14,O=C(Nc1cccc(Br)c1)Nc1cc(N2CCOCC2)nc(OCCN2CCOCC2)n1 [Compound 118],< 1
15,"Cc1[nH]c2ccc(NC(=O)c3cc(NCC(=O)N(C)CCO)nc(N4CCOCC4)n3)cc2c1C [Compound 101, 6-({[(2-Hydroxy-ethyl)-methyl-carbamoyl]-methyl}-amino)-2-morpholin-4-yl-pyrimidine-4-carboxylic acid (2,3-dimethyl-1H-indol-5-yl)-amide]",< 1
16,"Cn1ncc2ccc(NC(=O)c3cc(OCCN4CCOCC4)nc(N4CCOCC4)n3)cc21 [Compound 216, N-(1-methyl-1H-indazol-6-yl)-2-morpholino-6-(2-morpholinoethoxy)pyrimidine-4-carboxamide]",≥ 1
17,"CC(C)N(C)c1cccc(NC(=O)c2cc(OCCN3CCOCC3)nc(N3CCOCC3)n2)c1 [Compound 308, 2-Morpholin-4-yl-6-(2-morpholin-4-yl-ethoxy)-pyrimidine-4-carboxylic acid [3-(isopropyl-methyl-amino)-phenyl]-amide]",≥ 1
18,"O=C(Nc1cccc2ncccc12)c1cc(OCCc2ccccn2)nc(N2CCOCC2)n1 [Compound 39, 2-Morpholin-4-yl-6-(2-pyridin-2-yl-ethoxy)-pyrimidine-4-carboxylic acid quinolin-5-ylamide]",≥ 1

# Further lines, results first:
row,IC50 [µM],Compound
1,< 1,"CNCCOc1cc(C(=O)Nc2ccc3c(c2)c(C)c(C)n3C)nc(N2CCOCC2)n1 [Compound 286, 6-(2-Methylamino-ethoxy)-2-morpholin-4-yl-pyrimidine-4-carboxylic acid (1,2,3-trimethyl-1H-indol-5-yl)-amide]"
2,< 1,"CN(C)c1cccc(NC(=O)c2cc(N(C)CCO)nc(N3CCOCC3)n2)c1 [Compound 303, 6-[(2-Hydroxy-ethyl)-methyl-amino]-2-morpholin-4-yl-pyrimidine-4-carboxylic acid (3-dimethylamino-phenyl)-amide]"
3,< 1,"CCN1CCc2ccc(NC(=O)c3cc(OCCN4CCOCC4)nc(N4CCOCC4)n3)cc21 [Compound 221, N-(1-ethylindolin-6-yl)-2-morpholino-6-(2-morpholinoethoxy)pyrimidine-4-carboxamide]"
4,< 1,"Cc1[nH]c2ccc(NC(=O)c3cc(N(C)CCO)nc(N4CCOCC4)n3)cc2c1C [Compound 189, N-(2,3-dimethyl-1H-indol-5-yl)-6-((2-hydroxyethyl)(methyl)amino)-2-morpholinopyrimidine-4-carboxamide]"
5,< 1,"Cc1c(C)n(C)c2ccc(NC(=O)c3cc(OCCN4CCOCC4)nc(N4CCOCC4)n3)cc12 [Compound 24, 2-Morpholin-4-yl-6-(2-morpholin-4-yl-ethoxy)-pyrimidine-4-carboxylic acid (1,2,3-trimethyl-1H-indol-5-yl)-amide]"
6,< 1,"O=C(Nc1cccc(-n2cccn2)c1)c1cc(OCCN2CCOCC2)nc(N2CCOCC2)n1 [Compound 313, 2-Morpholin-4-yl-6-(2-morpholin-4-yl-ethoxy)-pyrimidine-4-carboxylic acid (3-pyrazol-1-yl-phenyl)-amide]"
7,< 1,"COCCNc1cc(C(=O)Nc2ccc3[nH]c(C)c(C)c3c2)nc(N2CCOCC2)n1 [Compound 252, N-(2,3-dimethyl-1H-indol-5-yl)-6-(2-methoxyethylamino)-2-morpholinopyrimidine-4-carboxamide]"
8,< 1,"Cc1[nH]c2ccc(NC(=O)c3cc(Nc4ccc5[nH]c(C)c(C)c5c4)nc(N4CCOCC4)n3)cc2c1C [Compound 255, N-(2,3-dimethyl-1H-indol-5-yl)-6-(2,3-dimethyl-1H-indol-5-ylamino)-2-morpholinopyrimidine-4-carboxamide]"
9,< 1,"Cc1cc(NC(=O)Nc2cc(OCCN3CCOCC3)nc(N3CCOCC3)n2)ccc1C(C)C [Compound 329, 1-(4-Isopropyl-3-methyl-phenyl)-3-[2-morpholin-4-yl-6-(2-morpholin-4-yl-ethoxy)-pyrimidin-4-yl]-urea]"
10,< 1,"Cc1[nH]c2ccc(NC(=O)c3cc(N4CCOCC4)cc(N4CCOCC4)n3)cc2c1C [Compound 30, 4,6-Di-morpholin-4-yl-pyridine-2-carboxylic acid (2,3-dimethyl-1H-indol-5-yl)-amide]"
11,< 1,"CC(=O)N[C@H]1CCN(c2cc(C(=O)Nc3ccc4[nH]cc(C)c4c3)nc(N3CCOCC3)n2)C1 [Compound 260, (S)-6-(3-acetamidopyrrolidin-1-yl)-N-(3-methyl-1H-indol-5-yl)-2-morpholinopyrimidine-4-carboxamide]"
12,< 1,"Cc1[nH]c2ccc(NC(=O)c3cc(NCC(=O)N(C)C)nc(N4CCOCC4)n3)cc2c1C [Compound 112, 6-(Dimethylcarbamoylmethyl-amino)-2-morpholin-4-yl-pyrimidine-4-carboxylic acid (2,3-dimethyl-1H-indol-5-yl)-amide]"
13,< 1,"Cc1[nH]c2ccc(NC(=O)c3cc(NCC(=O)N4CCCCC4)nc(N4CCOCC4)n3)cc2c1C [Compound 109, 2-Morpholin-4-yl-6-(2-oxo-2-piperidin-1-yl-ethylamino)-pyrimidine-4-carboxylic acid (2,3-dimethyl-1H-indol-5-yl)-amide]"
14,< 1,"Cc1ccc(NC(=O)c2cc(OCCN3CCOCC3)nc(N3CCOCC3)n2)cc1N(C)C [Compound 290, 2-Morpholin-4-yl-6-(2-morpholin-4-yl-ethoxy)-pyrimidine-4-carboxylic acid (3-dimethylamino-4-methyl-phenyl)-amide]"
15,< 1,"Cc1cccc(NC(=O)Nc2cc(OCCc3ccccn3)nc(N3CCOCC3)n2)c1 [Compound 67, 1-[2-Morpholin-4-yl-6-(2-pyridin-2-yl-ethoxy)-pyrimidin-4-yl]-3-m-tolyl-urea]"
16,< 1,"Cc1[nH]c2ccc(NC(=O)c3cc(NCC(=O)O)nc(N4CCOCC4)n3)cc2c1C [Compound 96, [6-(2,3-Dimethyl-1H-indol-5-ylcarbamoyl)-2-morpholin-4-yl-pyrimidin-4-ylamino]-acetic acid]"
17,< 1,"O=C(Nc1cccc(C(F)(F)F)c1)Nc1cc(N2CCOCC2)nc(OCCN2CCOCC2)n1 [Compound 121, 1-[6-Morpholin-4-yl-2-(2-morpholin-4-yl-ethoxy)-pyrimidin-4-yl]-3-(3-trifluoromethyl-phenyl)-urea]"
